{"source": "patent US11331333B2", "about": "“Treatment of aberrant fibroblast proliferation” (Georg August Universitaet Goettingen Stiftung Oeffentlichen …, priority 2019, dated 2022)", "system": "EYA1A^tg mice challenged with UUO", "assay": "Unilateral ureteral obstruction (UUO) kidney fibrosis in EYA1A^tg mice", "assay_type": "in vivo, mouse", "details": "Na3VO4 8 mg/kg or caffeine 12.5 mg/kg i.p. once per day; EYA1Atg mice, UUO", "experimental": "From 3 days before surgery, C57BL/6 (referred as wildtype) or transgenic mice overexpressing human splice variants EYA1A (rtTACMV;hEYA1A-pTreTight, referred to as EYA1A^tg) and EYA1C (rtTACMV;hEYA1C-pTreTight, referred to as EYA1C^tg) were treated with either vehicle buffer (glucose 5%) or DOX (2 mg/ml, Sigma, St. Louis, USA) within drinking water ad libidum and renewal every 2 days.\nMice were anesthetized with isoflurane inhalation (2-3%), analgesia was performed by subcutaneous injection of 0.1 mg/kg body weight per day Buprenorphine. The ureter was separated from the surrounding tissues and two ligatures were placed about 5 mm apart in upper two-thirds of the left ureter to obtain reliable obstruction. Mice were sacrificed 3, 7 or 10 days after ureteral obstruction for further analyses.\nMice were injected intraperitoneally with Na3VO4 (8 mg/kg i.p. once per day, Sigma, St. Louis, USA) or caffeine (12.5 mg/kg i.p. once per day, Sigma, St. Louis, USA) starting one day prior of surgery, control mice received equivalent volume of PBS or DMSO.\nMice were injected intraperitoneally with SCR7 (20 mg/kg i.p. every alternate day, Sigma, St. Louis, USA) starting one day prior of surgery, control mice received equivalent volume of DMSO.\nThe inventors obtained 25 nucleotide antisense morpholino sequences (Gene Tools, Philomath, USA). The in vivo morpholinos contain a covalently linked octaguanidine dendrimer as a delivery moiety to facilitate entry into cells in vivo. Mice were injected intraperitoneally with 12.5 mg/kg body weight in vivo morpholinos in saline at a final volume of 100 μL every other day starting two days prior of surgery. A control in vivo\n[…] morpholino that targets a human β-globin intron mutation was used as standard control. In vivo morpholino sequences are those of SEQ ID NOs: 9 (EYA1A-VMO), 10 (53Bp1-VMO) and 16 (control).\nFormalin-fixed, paraffin-embedded kidneys and hearts from mice, and HOPE-fixed, paraffin-embedded human specimens were sectioned at 3 μm, Masson's Trichrome Stain (MTS) was performed at the University Medicine Göttingen. For morphometric analysis of interstitial fibrosis in mice and human biopsies, we assessed the fibrotic area using cellSens (Olympus, Tokyo, Japan) software. Ten visual fields were selected randomly for each MTS stained section at 200× magnification and the relative interstitial fibrotic area was evaluated by using a 10 mm^2 graticule.\nFormalin-fixed, paraffin-embedded kidney sections from mice as well as from HOPE-fixed, paraffin-embedded human specimens were deparaffinized in xylene and rehydrated in ethanol containing distilled water. For immunofluorescent staining, EYA1 isoform antisera or primary antibodies against αSMA (A5228, Sigma, St. Louis, USA), Collagen-1 (ab34710, Abcam Biochemicals, Cambridge, UK), γH2A.X^pS139 (ab2893, Abcam Biochemicals, Cambridge, UK), γH2A.X^pS139 (05-636, Merck Millipore, Billerica, UK), γH2A.X^pY142 (ab94602, Abcam Biochemicals, Cambridge, UK), p-Chk1^pS317 (12302P, Cell Signaling, Danvers, USA), p-Chk2^pT68 (2197S, Cell Signaling, Danvers, USA), Rpa1 (2267S, Cell Signaling, Danvers, USA), Rad51 (sc-8349, Santa Cruz Biotechnology, Dallas, USA), 53Bp1 (sc-22760, Santa Cruz Biotechnology, Dallas, USA), Xrcc4 (sc-8285, Santa Cruz Biotechnology, Dallas, USA) and GFP (MA5-15256, Thermo Fisher Scientific, Waltham, USA) were used, secondary antibodies were labeled with Alexa Fluor 488, 594 or 647 (Life Technologies, Carlsbad, USA). Renal basement membranes were stained with antibodies against Collagen-4 (1340-30, SouthernBiotech, Birmingham, USA). Nuclear staining was performed using 4′,6-diamidino-2-phenylindole (DAPI, Vector Laboratories, Burlingame, USA). Quantifications were performed per high power field at 400× magnification, representative confocal pictures using an LSM 780 confocal laser scanning microscope (Zeiss, Oberkochen, Germany) are shown.", "data": [{"smiles": "Cn1c(=O)c2c(ncn2C)n(C)c1=O", "note": "[caffeine]", "values": [{"measurement": "impact of EYA1A overexpression on renal fibrogenesis", "result": "reversed the enhancing impact"}, {"measurement": "γH2A.X^pY142 dephosphorylation", "result": "effectively blocked"}]}, {"smiles": "[Na+].[Na+].[Na+].[O]=[V]([O-])([O-])[O-]", "note": "[Na3VO4, sodium orthovanadate]", "values": [{"measurement": "impact of EYA1A overexpression on renal fibrogenesis", "result": "reversed the enhancing impact"}, {"measurement": "γH2A.X^pY142 dephosphorylation", "result": "effectively blocked"}]}]}
